Results: patent publication US20210379056A1, “SUBSTITUTED PYRAZOLE FUSED RING DERIVATIVE, PREPARATION METHOD THEREFOR, AND APPLICATION THEREOF” (Applied Pharmaceutical Science, Inc., priority 2018, published 2021)

What was measured:
[1] = test system: RET wild-type, mutant and/or fusion-type; assay: Overall statement on RET inhibitory activity (summary of Table 3); settings: statement in words summarising Table 3
Source text: As shown in the above table, the example compounds of the present disclosure have improved inhibitory activity against RET wild-type, mutant and/or fusion-type.

[2] = test system: TT Cell; assay: Cell inhibitory activity test (CCK8); type: cell-based; settings: Table 3, 72 hours incubation
Protocol: Cell Inhibitory Activity Test
1. preparing 90 μl of cell suspension in a 96-well plate with 4000 cells/well. Pre-incubating the culture plate in an incubator for 24 hours (37° C., 5% CO2).
2. adding 10 μl of test compounds of different concentrations to each well of cells, and each compound has multiple wells.
3. incubating the culture plate in the incubator for 72 hours.
4. adding 10 μl of CCK8 solution to each well (be careful not to generate bubbles in the well, otherwise they would affect the reading of the OD value).
5. incubating the culture plate in the incubator for 1-2 hours.
6. measuring the absorbance at 450 nm with a microplate reader.
7. according to the compound concentration and absorbance value, GraphpadPrism software was used to calculate the IC50 of each compound.

[3] = molecular target: T1, Ret wt (Homo sapiens, UniProt P07949); assay: HTRF kinase activity test, RET wild type; type: biochemical; settings: Table 3; read-out: RET Enzyme (wild type) IC50
T1 construct: purchased Invitrogen PV3082
T1 sequence (P07949 29-1114): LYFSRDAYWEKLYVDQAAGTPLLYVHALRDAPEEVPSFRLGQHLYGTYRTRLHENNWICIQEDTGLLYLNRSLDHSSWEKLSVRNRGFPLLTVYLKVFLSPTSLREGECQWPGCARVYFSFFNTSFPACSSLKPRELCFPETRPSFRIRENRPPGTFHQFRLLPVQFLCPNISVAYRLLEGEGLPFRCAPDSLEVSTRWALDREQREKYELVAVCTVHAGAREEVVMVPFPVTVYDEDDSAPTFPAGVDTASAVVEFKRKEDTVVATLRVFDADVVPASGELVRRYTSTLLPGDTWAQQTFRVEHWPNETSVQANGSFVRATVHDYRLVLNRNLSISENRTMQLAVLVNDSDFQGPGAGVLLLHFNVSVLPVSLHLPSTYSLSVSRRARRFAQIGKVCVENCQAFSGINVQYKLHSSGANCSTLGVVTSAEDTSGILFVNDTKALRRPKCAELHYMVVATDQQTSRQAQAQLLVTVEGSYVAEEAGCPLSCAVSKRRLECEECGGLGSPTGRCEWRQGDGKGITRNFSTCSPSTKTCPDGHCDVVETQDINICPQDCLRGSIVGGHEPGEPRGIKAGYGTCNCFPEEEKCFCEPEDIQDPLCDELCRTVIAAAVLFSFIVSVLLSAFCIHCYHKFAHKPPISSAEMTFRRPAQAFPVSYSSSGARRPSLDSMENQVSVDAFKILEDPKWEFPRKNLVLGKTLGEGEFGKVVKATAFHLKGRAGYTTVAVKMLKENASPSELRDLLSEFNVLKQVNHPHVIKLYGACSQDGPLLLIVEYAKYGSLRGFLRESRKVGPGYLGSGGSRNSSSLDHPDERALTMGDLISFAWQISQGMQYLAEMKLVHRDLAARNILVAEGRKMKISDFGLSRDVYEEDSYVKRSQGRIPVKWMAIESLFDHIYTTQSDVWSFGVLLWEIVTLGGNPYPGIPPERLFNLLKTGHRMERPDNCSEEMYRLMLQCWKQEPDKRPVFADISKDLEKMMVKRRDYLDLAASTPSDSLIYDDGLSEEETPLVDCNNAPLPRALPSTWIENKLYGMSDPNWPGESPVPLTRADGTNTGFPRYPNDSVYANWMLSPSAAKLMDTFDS
Protocol: This test combined peptide substrates and a single proprietary monoclonal antibody with HTRF technology, which was a highly sensitive and stable technology for detecting molecular interactions of proteins. The enzyme phosphorylates the substrate, then the Eu-labeled antibody binds to the phosphorylated substrate, and streptavidin-XL665 binds to all substrates. The TR-FRET signal was generated by the HTRF principle. […] Based on this, the inhibitory effect was evaluated.
(§1) The other compounds were diluted 3-fold gradiently with DMSO from the 10 mM stock solution to a total of 10 concentrations respectively.
(§2) Adding 4 volumes of distilled water to 1 volume of enzyme buffer 5×; 5 mM MgCl2; 1 mM DTT.
(§3) b) centrifuging the compound plate for 1 minute at 1000 g.
(§4) c) sealing the test board.
(§5) f) adding 4 μl of 1× kinase buffer to each well of the test plate, centrifuging the sample plate at 1000 g for 30 seconds, and placing it at room temperature for 10 minutes.
(§6) g) preparing a solution of 5× TK-substrate-biotin ([…]) in kinase buffer and 5×ATP (50 μM) in kinase buffer respectively.
(§7) h) starting the reaction by adding 2 μl STK-substrate-biotin and 2 μl ATP (prepared in the step g).
(§8) i) centrifuging the sample plate for 30 seconds at 1000 g. Sealing the test board and placing it at room temperature for 30 minutes.
(§9) ) centrifuging at 1000 g for 30 seconds and placing it at room temperature for 1 hour.
(§10) The inhibition rate % was calculated as follows:
(§11) Inhibition rate %=[1−(fluorescence signal value of test compound−fluorescence signal value of positive control)/(average ratio of negative control−average ratio of positive control)]*100%
(§12) Ratio: generated from the measured fluorescence signal value
(§13) The average ratio of the positive control is the average ratio of the positive control (200 nM AT13148) in the sample plate;
(§14) The average ratio of negative controls is the average ratio of negative controls (0.1% DMSO) in the sample plate.
(§15) GraphPad 6.0 was used to fit the logarithm of the % inhibition rate and the compound concentration into a nonlinear regression (dose response−variable slope) to calculate the IC50 value.

[4] = molecular target: T2, RET (V804M) (Homo sapiens, UniProt P07949, V804M); assay: HTRF kinase activity test, RET V804M; type: biochemical; settings: Table 3; read-out: RET Enzyme (V804M) IC50
T2 construct: purchased Signalchem R02-12GG
T2 sequence (P07949 29-1114 V804M): as the sequence (P07949 29-1114) above, with V776M counted along it
Protocol: This test combined peptide substrates and a single proprietary monoclonal antibody with HTRF technology, which was a highly sensitive and stable technology for detecting molecular interactions of proteins. The enzyme phosphorylates the substrate, then the Eu-labeled antibody binds to the phosphorylated substrate, and streptavidin-XL665 binds to all substrates. The TR-FRET signal was generated by the HTRF principle. Once the inhibitor (test compound) was added, a weaker TR-FRET signal is obtained. Based on this, the inhibitory effect was evaluated.
as §1, §2
a) Transferring 10 nl of the compound dilution (prepared in 5.2) to each well of the test plate (784075, Greiner);
as §3, §4
d) preparing 5×Ret wt (0.2 ng/μl) and 5×Ret V804L (0.5 ng/μl)/5×Ret V804M (0.5 ng/μl) in 1× kinase buffer respectively.
e) adding 2 μl of 5×Ret wt or 2 μl of Ret V804L/RET V804M to a 384-well test plate (784075, Greiner).
as §5, §6, §7, §8
j) preparing 4×Sa-XL 665 (250 nM) in HTRF detection buffer.
k) adding 5 μl of Sa-XL 665 and 5 μl of TK-antibody-Cryptate (prepared in the step i) to each well of the test plate.
as §9
m) reading the fluorescence signal values at 615 nm (Cryptate) and 665 nm (XL665) on the Envision 2104 plate reader.
Calculating the ratio of each hole (665 nm/615 nm).
as §10, §11, §12, §13, §14, §15

Row | Compound | inhibitory activity against RET wild-type, mutant and/or fusion-type [1] | IC50 [2] [nM] | IC50 [3] [nM] | IC50 ([2]; Homo sapiens, TT) [nM] | IC50 [4] [nM]
1 | 2-amino-4-(6-(4-((2-fluorobenzyl)piperazine-6-(1-methyl-1H-pyrazol-4-yl)pyrazolo[1,5-a]pyridine-3-carbonitrile [APS015] | excellent activity | 27.7 | 1.7 |  | 
2 | Cn1cc(-c2cc(-c3ccc(N4CCN(Cc5cncc(F)c5)CC4)nc3)c3c(C#N)c(N)nn3c2)cn1 [APS014] | excellent activity |  | 1 | 44.6 | 
3 | Cn1cc(-c2cc(-c3ccc(N4CCN(Cc5cccc(F)c5)CC4)nc3)c3c(C#N)c(N)nn3c2)cn1 [APS019] | excellent activity |  | < 1 | 7.8 | 
4 | Cn1cc(-c2cc(-c3ccc(N4CCN(Cc5cc(F)ccc5F)CC4)nc3)c3c(C#N)c(N)nn3c2)cn1 [APS020] | excellent activity |  | 1.1 | 14.3 | 
5 | Cc1cccnc1CN1CCN(c2ccc(-c3cc(-c4cnn(C)c4)cn4nc(N)c(C#N)c34)cn2)CC1 [APS022] | excellent activity |  | 2.2 | 45.5 | 
6 | Cn1cc(-c2cc(-c3ccc(N4CCN(Cc5c(F)cccc5F)CC4)nc3)c3c(C#N)c(N)nn3c2)cn1 [APS024, 2-amino-4-(6-(4-(2,6-difluorobenzyl)piperazin-1-yl)pyridin-3-yl)-6-(1-methyl-1H-pyrazole-4-yl)pyrazolo[1,5-a]pyridine-3-carbonitrile] | excellent activity |  | 1 | 7.1 | 
7 | Cc1ccnc(CN2CCN(c3ccc(-c4cc(-c5cnn(C)c5)cn5nc(N)c(C#N)c45)cn3)CC2)c1 [APS025] | excellent activity |  | 1.4 | 38.2 | 
8 | COc1cccc(CN2CCN(c3ccc(-c4cc(-c5cnn(C)c5)cn5nc(N)c(C#N)c45)cn3)CC2)c1 [APS026, 2-amino-4-(6-(4-(3-methoxybenzyl)piperazin-1-yl)pyridin-3-yl)-6-(1-methyl-1H-pyrazole-4-yl)pyrazolo[1,5-a]pyridine-3-carbonitrile] | excellent activity |  | 1.4 | 18.1 | 
9 | Cn1cc(-c2cc(-c3ccc(N4CCN(Cc5ccccc5Cl)CC4)nc3)c3c(C#N)c(N)nn3c2)cn1 [APS027, 2-amino-4-(6-(4-(2-chlorobenzyl)piperazin-1-yl)pyridin-3-yl)-6-(1-methyl-1H-pyrazol-4-yl) pyrazolo[1,5-a]pyridine-3-carbonitrile] | excellent activity |  | 2.4 | 85.7 | 
10 | Cn1cc(-c2cc(-c3ccc(N4CCN(Cc5ccccn5)CC4)nc3)c3c(C#N)c(N)nn3c2)cn1 [APS035, 2-amino-6-(1-methyl-1H-pyrazol-4-yl)-4-(6-(4-(4-(pyridin-2-yl)methyl)piperazin-1-yl)pyridin-3-yl)pyrazolo[1,5-a]pyridine-3-carbonitrile] | excellent activity |  | 1.7 | 65.4 | 
11 | Cn1cc(-c2cc(-c3ccc(N4CC5CC(C4)N5Cc4ccccn4)nc3)c3c(C#N)c(N)nn3c2)cn1 [APS038, 2-amino-6-(1-methyl-1H-pyrazol-4-yl)-4-(6-(6-(pyridin-2-yl-methyl)-3,6-diazabicyclo[3.1.1]heptan-3-yl)pyridin-3-yl)pyrazolo[1,5-a]pyridine-3-carbonitrile] | excellent activity |  | 1 | 37.7 | 
12 | COc1ccc(CN2CCN(c3ccc(-c4cc(-c5cnn(C)c5)cn5nc(N)c(C#N)c45)cn3)CC2)cn1 [APS068, 2-amino-4-(6-(4-((6-methoxypyridin-3-yl)methyl)piperazin-1-yl)pyridin-3-yl)-6-(1-methyl-1H-pyrazol-4-yl)pyrazolo[1,5-a]pyridine-3-carbonitrile] | excellent activity |  |  | 11.3 | 
13 | COc1ccc(CN2C3CC2CN(c2ccc(-c4cc(OCC(C)(C)O)cn5nc(OC)c(C#N)c45)cn2)C3)cn1 [APS091, 6-(2-hydroxy-2-methylpropoxy)-2-methoxy-4-(6-(6-((6-methoxypyridin-3-yl)methyl)-3,6-diazabicyclo[3.1.1]heptan-3-yl)pyridin-3-yl)pyrazolo[1,5-a]pyridine-3-carbonitrile] |  |  |  |  | 957
14 | COc1ccc(CN2C3CC2CN(c2ccc(-c4cc(OCC(C)(C)O)cn5nc(NC(C)=O)c(C#N)c45)cn2)C3)cn1 [APS093] |  |  | 2890 |  | 1550
15 | COc1ccc(CN2C3CC2CN(c2ccc(-c4cc(OCC(C)(C)O)cn5nc(NCCO)c(C#N)c45)cn2)C3)cn1 [APS094, 6-(2-Hydroxy-2-methylpropoxy)-2-((2-2-hydroxyethyl)amino)-4-(6-(6-((6-methoxypyridine-3-yl)methyl)-3,6-diazabicyclo[3.1.1]heptan-3-yl)pyridin-3-yl)pyrazolo[1,5-a]pyridine-3-carbonitrile] |  |  | 942 |  | 493
16 | CCOc1cc(-c2ccc(N3CC4CC(C3)N4Cc3ccc(OC)nc3)nc2)c2c(C#N)c(F)nn2c1 [APS096] |  |  | 122 |  | 186
17 | CCOc1cc(-c2ccc(N3CCN(Cc4ccc(OC)nc4)CC3)nc2)c2c(C#N)c(N)nn2c1 [APS099] | excellent activity |  |  | 16.2 | 
18 | COCCOc1cc(-c2ccc(N3CCN(Cc4ccc(OC)nc4)CC3)nc2)c2c(C#N)c(N)nn2c1 [APS100, 2-amino-6-(2-methoxyethoxy)-4-(6-(4-((6-methoxypyridin-3-yl)methyl)piperazin-1-yl)pyridine-3-yl)pyrazolo[1,5-a]pyridine-3-carbonitrile] | excellent activity |  |  | 22.4 | 
19 | CCOc1cc(-c2ccc(N3CC4CC(C3)N4Cc3cncc(F)c3)nc2)c2c(C#N)c(N)nn2c1 [APS111, 2-amino-6-ethoxy-4-(6-(6-((5-fluoropyridin-3-yl)methyl)-3,6-diazabicyclo[3.1.1]heptane-3-yl)pyridin-3-yl)pyrazolo[1,5-a]pyridine-3-carbonitrile] | excellent activity |  |  | 6.4 | 
20 | COc1ccc(CN2C3CC2CN(c2ccc(-c4cc(OCCOC(C)C)cn5nc(N)c(C#N)c45)cn2)C3)cn1 [APS120, 2-amino-6-(2-isopropoxyethoxy)-4-(6-(6-((6-methoxypyridin-3-yl)methyl)-3,6-diazabicyclo [3.1.1]heptan-3-yl)pyridin-3-yl)pyrazolo[1,5-a]pyridine-3-carbonitrile] | excellent activity |  |  | 16.9 | 
